Test results: patent US10597388B2, “Pyridazinone herbicides” (FMC CORPORATION, priority 2014, dated 2020)
Like-named read-outs stand apart in the source and are kept apart here.

Key:
Format in all cases: in vivo
[1] = tested on: barnyardgrass (Echinochloa crus-galli); test: Test A greenhouse herbicide test, pre- and postemergence; conditions: for pest or weed control at 1000 g/ha: Echinochloa crus-galli, 240 h, 1000 g ai/ha
Source text: (§1) Seeds of plant species selected from barnyardgrass (Echinochloa crus-galli), kochia (Kochia scoparia), ragweed (common ragweed, Ambrosia elatior), ryegrass, Italian (Italian ryegrass, Lolium multiflorum), crabgrass, large (large crabgrass, Digitaria sanguinalis), foxtail, giant (giant foxtail, Setaria faberii), momingglory (Ipomoea spp.), pigweed (Amaranthus retroflexus), velvetleaf (Abutilon theophrasti), wheat (Triticum aestivum), and corn (Zea mays) were planted into a blend of loam soil and sand and treated preemergence with a directed soil spray using test chemicals formulated in a non-phytotoxic solvent mixture which included a surfactant.
(§2) At the same time, plants selected from these crop and weed species and also blackgrass (Alopecurus myosuroides), and galium (catchweed bedstraw, Galium aparine) were planted in pots containing the same blend of loam soil and sand and treated with postemergence applications of test chemicals formulated in the same manner. Plants ranged in height from 2 to 10 cm and were in the one- to two-leaf stage for the postemergence treatment. Treated plants and untreated controls were maintained in a greenhouse for approximately 10 d, after which time all treated plants were compared to untreated controls and visually evaluated for injury. Plant response ratings, summarized in Table A, are based on a 0 to 100 scale where 0 is no effect and 100 is complete control. A dash (-) response means no test result.

corn (Zea mays) = test: as above; conditions: Postemergence
Source text: as §1, §2

[2] = tested on: foxtail, giant (giant foxtail, Setaria faberii); test: as above; conditions: for pest or weed control at 1000 g/ha: Setaria faberi, 240 h, 1000 g ai/ha
Source text: as §1, §2

kochia (Kochia scoparia) = test: as above; conditions: for pest or weed control at 1000 g/ha: Bassia scoparia, 240 h, 1000 g ai/ha
Source text: as §1, §2

[3] = tested on: pigweed (Amaranthus retroflexus); test: as above; conditions: for pest or weed control at 1000 g/ha: Amaranthus retroflexus, 240 h, 1000 g ai/ha
Source text: as §1, §2

[4] = tested on: ragweed (common ragweed, Ambrosia elatior); test: as above; conditions: for pest or weed control at 1000 g/ha: Ambrosia artemisiifolia, 240 h, 1000 g ai/ha
Source text: as §1, §2

[5] = tested on: ryegrass, Italian (Italian ryegrass, Lolium multiflorum); test: as above; conditions: for pest or weed control at 1000 g/ha: Lolium multiflorum, 240 h, 1000 g ai/ha
Source text: as §1, §2

[6] = tested on: wheat (Triticum aestivum); test: as above; conditions: Postemergence
Source text: as §1, §2

[7] = tested on: blackgrass (Alopecurus myosuroides); test: Test A greenhouse herbicide test, postemergence
In short: (§3)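 Plants grown in loam soil/sand blend pots were treated postemergence at 2 to 10 cm height, one- to two-leaf stage, with formulated test chemicals. After approximately 10 d in a greenhouse, injury was rated visually against untreated controls on a 0 to 100 scale (0 no effect, 100 complete control).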

[8] = tested on: galium (catchweed bedstraw, Galium aparine); test: Test A greenhouse herbicide test, postemergence
In short: as §3

[9] = tested on: barnyardgrass (Echinochloa crus-galli); test: Test B flooded paddy test; conditions: 250 g ai/ha, Flood, visual rating on scale of 0 to 100 where 0 is no effect and 100 is complete control, 13 to 15 d after treatment
Method: (§4) Plant species in the flooded paddy test selected from rice (Oryza sativa), sedge, umbrella (small-flower umbrella sedge, Cyperus difformis), ducksalad (Heteranthera limosa), and barnyardgrass (Echinochloa crus-galli) were grown to the 2-leaf stage for testing. At time of treatment, test pots were flooded to 3 cm above the soil surface, treated by application of test compounds directly to the paddy water, and then maintained at that water depth for the duration of the test. Treated plants and controls were maintained in a greenhouse for 13 to 15 d, after which time all species were compared to controls and visually evaluated. Plant response ratings, summarized in Table B, are based on a scale of 0 to 100 where 0 is no effect and 100 is complete control. A dash (-) response means no test result.

[10] = tested on: ducksalad (Heteranthera limosa); test: Test B flooded paddy test; conditions: 250 g ai/ha, Flood, visual rating on scale of 0 to 100 where 0 is no effect and 100 is complete control, 13 to 15 d after treatment
Method: as §4

rice (Oryza sativa) = test: Test B flooded paddy test; conditions: 250 g ai/ha, Flood, visual rating on scale of 0 to 100 where 0 is no effect and 100 is complete control, 13 to 15 d after treatment
Method: as §4

[11] = tested on: sedge, umbrella (small-flower umbrella sedge, Cyperus difformis); test: Test B flooded paddy test; conditions: 250 g ai/ha, Flood, visual rating on scale of 0 to 100 where 0 is no effect and 100 is complete control, 13 to 15 d after treatment
Method: as §4

[12] = Postemergence, 125 g ai/ha, 0 to 100 scale where 0 is no effect and 100 is complete control
[13] = Postemergence, 500 g ai/ha, 0 to 100 scale, 0 is no effect, 100 is complete control
[14] = Preemergence, 125 g ai/ha, 0 to 100 scale where 0 is no effect and 100 is complete control
[15] = Preemergence, 500 g ai/ha, 0 to 100 scale, 0 no effect, 100 complete control
[16] = 125 g ai/ha, 0 to 100 scale where 0 is no effect and 100 is complete control
[17] = 500 g ai/ha, 0 to 100 scale, 0 is no effect, 100 is complete control

CCc1ccc2oc(C)c(-c3c(O)c(C)nn(C)c3=O)c2c1 [Compound 13, 4-(5-ethyl-2-methyl-3-benzofuranyl)-5-hydroxy-2,6-dimethyl-3(2H)-pyridazinone]
pest or weed control at 1000 g/ha ([1]; post-emergence, Postemergence, 0 to 100 scale, 0 is no effect, 100 is complete control, read-out: Barnyardgrass plant response rating): 80%
pest or weed control at 1000 g/ha ([1]; pre-emergence, Preemergence, 0 to 100 scale, 0 no effect, 100 complete control, read-out: Plant response rating, Barnyardgrass): 60%
plant injury at 1000 g/ha (corn (Zea mays); Zea mays, post-emergence, 240 h, 1000 g ai/ha, 0 to 100 scale, 0 is no effect, 100 is complete control, read-out: Corn plant response rating): 20%
pest or weed control at 1000 g/ha ([2]; post-emergence, Postemergence, 0 to 100 scale, 0 is no effect, 100 is complete control, read-out: Foxtail, Giant plant response rating): 80%
pest or weed control at 1000 g/ha ([2]; pre-emergence, Preemergence, 0 to 100 scale, 0 no effect, 100 complete control, read-out: Plant response rating, Foxtail, Giant): 50%
pest or weed control at 1000 g/ha (kochia (Kochia scoparia); post-emergence, Postemergence, 0 to 100 scale, 0 is no effect, 100 is complete control, read-out: Kochia plant response rating): 30%
pest or weed control at 1000 g/ha (kochia (Kochia scoparia); pre-emergence, Preemergence, 0 to 100 scale, 0 no effect, 100 complete control, read-out: Plant response rating, Kochia): 20%
pest or weed control at 1000 g/ha ([3]; post-emergence, Postemergence, 0 to 100 scale, 0 is no effect, 100 is complete control, read-out: Pigweed plant response rating): 20%
pest or weed control at 1000 g/ha ([3]; pre-emergence, Preemergence, 0 to 100 scale, 0 no effect, 100 complete control, read-out: Plant response rating, Pigweed): 0%
pest or weed control at 1000 g/ha ([4]; post-emergence, Postemergence, 0 to 100 scale, 0 is no effect, 100 is complete control, read-out: Ragweed plant response rating): 30%
pest or weed control at 1000 g/ha ([4]; pre-emergence, Preemergence, 0 to 100 scale, 0 no effect, 100 complete control, read-out: Plant response rating, Ragweed): 0%
pest or weed control at 1000 g/ha ([5]; post-emergence, Postemergence, 0 to 100 scale, 0 is no effect, 100 is complete control, read-out: Ryegrass, Italian plant response rating): 70%
pest or weed control at 1000 g/ha ([5]; pre-emergence, Preemergence, 0 to 100 scale, 0 no effect, 100 complete control, read-out: Plant response rating, Ryegrass, Italian): 60%
plant injury at 1000 g/ha ([6]; Triticum aestivum, post-emergence, 240 h, 1000 g ai/ha, 0 to 100 scale, 0 is no effect, 100 is complete control, read-out: Wheat plant response rating): 20%
pest or weed control at 1000 g/ha ([7]; Alopecurus myosuroides, post-emergence, 240 h, 1000 g ai/ha, 0 to 100 scale, 0 is no effect, 100 is complete control, read-out: Blackgrass plant response rating): 30%
pest or weed control at 1000 g/ha ([8]; Galium, post-emergence, 240 h, 1000 g ai/ha, 0 to 100 scale, 0 is no effect, 100 is complete control, read-out: Galium plant response rating): 70%
pest or weed control at 250 g/ha ([9]; Echinochloa crus-galli, 360 h, read-out: Plant response rating, Barnyardgrass): 0%
pest or weed control at 250 g/ha ([10]; Heteranthera limosa, 360 h, read-out: Plant response rating, Ducksalad): 0%
plant injury at 250 g/ha (rice (Oryza sativa); Oryza sativa, 360 h, read-out: Plant response rating, Rice): 0%
pest or weed control at 250 g/ha ([11]; Cyperus difformis, 360 h, read-out: Plant response rating, Sedge, Umbrella): 0%

Cc1cc(C)c2sc(C)c(-c3c(OC(=O)C(C)(C)C)c(C)nn(C)c3=O)c2c1 [Compound 43]
Plant response rating, Barnyardgrass [1, 12]: 0
Barnyardgrass plant response rating [1, 13]: 30
Barnyardgrass plant response rating [1, 14]: 0
Plant response rating, Barnyardgrass [1, 15]: 10
Plant response rating, Corn (corn (Zea mays); [16]): 0
Corn plant response rating (corn (Zea mays); [17]): 0
Plant response rating, Foxtail, Giant [2, 12]: 0
Foxtail, Giant plant response rating [2, 13]: 70
Foxtail, Giant plant response rating [2, 14]: 0
Plant response rating, Foxtail, Giant [2, 15]: 50
Plant response rating, Kochia (kochia (Kochia scoparia); [12]): 0
Kochia plant response rating (kochia (Kochia scoparia); [13]): 10
Kochia plant response rating (kochia (Kochia scoparia); [14]): 50
Plant response rating, Kochia (kochia (Kochia scoparia); [15]): 20
Plant response rating, Pigweed [3, 12]: 0
Pigweed plant response rating [3, 13]: 10
Pigweed plant response rating [3, 14]: 0
Plant response rating, Pigweed [3, 15]: 10
Plant response rating, Ragweed [4, 12]: 0
Ragweed plant response rating [4, 13]: 0
Ragweed plant response rating [4, 14]: 0
Plant response rating, Ragweed [4, 15]: 10
Plant response rating, Ryegrass, Italian [5, 12]: 40
Ryegrass, Italian plant response rating [5, 13]: 60
Ryegrass, Italian plant response rating [5, 14]: 10
Plant response rating, Ryegrass, Italian [5, 15]: 70
Plant response rating, Wheat [6, 16]: 0
Wheat plant response rating [6, 17]: 0
Plant response rating, Blackgrass [7, 16]: 30
Blackgrass plant response rating [7, 17]: 80
Plant response rating, Galium [8, 16]: 50
Galium plant response rating [8, 17]: 90
Plant response rating, Barnyardgrass [9]: 0
Plant response rating, Ducksalad [10]: 0
Plant response rating, Rice (rice (Oryza sativa)): 0
Plant response rating, Sedge, Umbrella [11]: 0
